In brackets after ≈: the same amount, converted by molar mass.
System: Mycobacterium tuberculosis variant bovis
Experiment: Antimycobacterial activity against Mycobacterium bovis BCG ATCC 35743 measured on 8th to 12th day by nitrate reductase assay
Type: functional
Details: BCG str. ATCC 35743, time 8-12 day

Row | Structure (SMILES) | IC90
1 | Cc1cc(NS(=O)(=O)c2ccc(N3C(=O)CSC3c3c(F)cccc3F)cc2)no1 (stereo not given) | 0.058 µg/mL (≈ 0.128 µM)
2 | Cc1cc(NS(=O)(=O)c2ccc(N3C(=O)CSC3c3ccc(Cl)cc3)cc2)no1 (stereo not given) | 0.058 µg/mL (≈ 0.129 µM)
3 | Cc1cc(NS(=O)(=O)c2ccc(N3C(=O)CSC3c3ccc(C(F)(F)F)cc3)cc2)no1 (stereo not given) | 0.058 µg/mL (≈ 0.12 µM)
4 | Cc1cc(NS(=O)(=O)c2ccc(N3C(=O)CSC3c3c(Cl)cccc3Cl)cc2)no1 (stereo not given) | 0.058 µg/mL (≈ 0.12 µM)
5 | Cc1cc(NS(=O)(=O)c2ccc(N3C(=O)CSC3c3ccc(F)cc3)cc2)no1 (stereo not given) | 0.058 µg/mL (≈ 0.134 µM)
